Reference: patent US10653693B2, “PRMT5 inhibitors and uses thereof” (Epizyme, Inc., priority 2014, dated 2020)
Like-named read-outs stand apart in the source and are kept apart here.

How the values were obtained:
[1] = system: Jeko-1; assay: Long-term proliferation (LTP) assay; type: cell-based; details: Homo sapiens
[2] = system: Z-138 xenograft model; assay: 21 day mantle cell lymphoma xenograft study: TGI and tumor methyl mark; type: in vivo; details: Z-138 efficacy study; all dose groups tested; day 21
Method: Data presented in this example were determined after analysis of 21 day samples of mantle cell lymphoma tumors. Cmin PK samples were taken prior to the last dose on day 21. Tumors were excised, weighed and processed for methyl mark. Methyl mark reduction was measured in tumor samples and is shown as percent of vehicle control (POC). […] Tumor growth inhibition was determined using tumor volume reduction at day 21 expressed as a percent of POC. In vivo inhibition curves were also generated and IC50 values determined. Plasma levels from each group are averaged from 5 animals. […] The average body weight loss (BWL) in all groups was <6%. All doses tested show >50% TGI. […] The average BWL in all groups was <4%. The average BWL in all groups was <8%, except in the 100 mg/kg does group were 4 animals exceeded BWL of 15%.

[3] = Body weight loss in Z-138 xenograft study; type: in vivo; details: 21 days
Method: (§1) Data presented in this example were determined after analysis of 21 day samples of mantle cell lymphoma tumors. Cmin PK samples were taken prior to the last dose on day 21. Tumors were excised, weighed and processed for methyl mark. Methyl mark reduction was measured in tumor samples and is shown as percent of vehicle control (POC). Both SYM11 and sDMA Elisa were used to measure methyl mark and the data shown is averaged from 10 animals. Tumor growth inhibition was determined using tumor volume reduction at day 21 expressed as a percent of POC. In vivo inhibition curves were also generated and IC50 values determined. Plasma levels from each group are averaged from 5 animals. […] The average body weight loss (BWL) in all groups was <6%. All doses tested show >50% TGI. […] The average BWL in all groups was <4%. The average BWL in all groups was <8%, except in the 100 mg/kg does group were 4 animals exceeded BWL of 15%.

[4] = system: Granta-519; assay: Long-term proliferation (LTP) assay; type: cell-based; details: Homo sapiens
[5] = Body weight loss in Maver-1 xenograft study; type: in vivo; details: 21 days
Method: as §1

[6] = system: Z138; assay: Cell cycle analysis (propidium iodide staining, FACS); type: cell-based, Human; details: 3 days
Method: Cells were seeded in 6-well tissue culture dishes in a volume of 3 mL IMDM+10% horse serum (supplemented with 0.5 μg/mL puromycin for transduced cell lines). Cells were treated with DMSO, 10 nM Formula C, or 200 nM Formula C for 3 days. Cells were harvested by centrifuging at 2,000 RPM for 5 minutes, washing with PBS, washing with citrate buffer, then aspirating excess citrate buffer to leave approximately 50 μL remaining above pellet. Pellets were frozen at −80° C. until ready to process.
Pellets were propidium iodide-stained for FACS using the Becton Dickinson CycleTEST PLUS kit (cat. #340242). Solutions A, B, and C of the kit were thawed and then kept on ice. Cell pellets were thawed rapidly at 37° C. and pipetted up and down to resuspend in 50 μL of citrate buffer.
Approximately one quarter of the cell pellet volume was transferred to a fresh Eppendorf tube. 250 μL of solution A was added to each sample and then inverted 7 to 10 times. Samples were placed on a shaker at 150 RPM for 10 minutes at room temperature. Samples were on ice when not shaking. 250 μL of solution B and 250 μL of solution C were added to each sample in the same fashion. […]
Samples were processed by FACS on a Becton Dickinson FACSCalibur machine. The percentage of cells in each cell cycle stage was determined using the cell cycle function on the gated single cell population with FlowJo V10 software.

[7] = system: Z138 cells; assay: Western analysis (sDMA, cleaved Caspase-3, cleaved PARP); type: cell-based, Human; details: 1 μM, 1-5 days
Method: Z138 cells were seeded at approximately […] in IMDM+10% horse serum media. Cells were treated with 1 μM of compound for 1, 2, 3, 4, or 5 days. Cell pellets were collected by centrifuging at 500×g for 5 minutes, washing once with PBS, and freezing at −80° C. until ready to be processed.
Protein lysates were prepared by adding RIPA buffer (Sigma R0278) containing protease inhibitor (about 5× the volume of the cell pellet, or roughly 250 μL) to each cell pellet and pipetting to resuspend. Samples were sonicated with 10×1 second pulses then centrifuged at maximum speed (13,300 RPM) for 6 minutes. Supernatant (200 μL) was transferred to a fresh Eppendorf tube, and pellets were discarded. Protein concentration was determined using a Pierce BCA Protein Assay kit.
Protein gel samples were prepared by combining 20 μg of lysate with appropriate volumes of Life Technologies NuPage Sample Reducing Agent, LDS Sample Buffer, and RIPA buffer. Gel samples were heated for 5-10 minutes at 100° C. in a heat block. A 15-well Invitrogen 4-12% Bis-Tris NuPAGE-SDS gel was loaded with a volume of 19 μL per well, and run in MES SDS buffer at 150V for about 1 hour or until maximal separation of bands was achieved.
Gels were transferred onto nitrocellulose membranes using an Invitrogen iBlot system. […]

[8] = system: SW48 colon cancer cells (SW48−/− vs SW48); assay: Sensitivity of cells lacking p53 versus wild-type; type: cell-based; details: based on EC50, gIC50, or gIC90
From the text: PRMT5 methylation of non-histone substrates (such as E2F1 and p53) also contributes to cancer cell growth and death. Results of Western blot and PCR experiments indicate PRMT5 inhibition leads to gene expression and splicing changes, ultimately resulting in the induction of p53 in cancer cells. A PRMT5 inhibitor of Formula C was used to generate the data in FIG. 21 and FIG. 22.

[9] = 264 h, 11-day treatment, N = 1, read-out: Formula B LTP IC50
[10] = 264 h, 11-day treatment, N = 1, read-out: Formula B LTP IC90

`CC(=O)N1CCC(Nc2cc(C(=O)NC[C@H](O)CN3CCc4ccccc4C3)ccn2)CC1` [Formula B] showed an IC50 [1, 9] of 14 nM, an IC90 [1, 10] of 149 nM and an IC50 ([1]; Table 3, read-out: LTP IC50) of 5.2 nM. For the same compound, the “methyl mark in tumors (sDMA Western blot)” value [2] was “completely removed”, the “average body weight loss (BWL) in all groups” value [3] was under 6% and the IC50 [4, 9] was 12 nM. For the same compound, the IC90 [4, 10] was 77 nM, the IC50 ([4]; Table 3, read-out: LTP IC50) was 6 nM and the “average body weight loss (BWL) in all groups” value [5] was under 4%.

In the case of `O=C(NC[C@H](O)CN1CCc2ccccc2C1)c1ccnc(NC2CCC2)c1` [Formula C], the cell cycle effect ([6]; 10 nM) is reported as “G1 arrest”, the cell cycle effect ([6]; 200 nM) is reported as “cell death” and the “cell death pathways (cleaved Caspase-3 and cleaved PARP) by Western” value [7] is reported as “induction of cell death pathways”. The “inhibition of PRMT5 (sDMA, symmetric dimethylarginine) by Western” value [7] was “time-dependent inhibition” and the “sensitivity of cells lacking p53 compared to wild-type” value [8] was “less sensitive”.
